Series [1] is described as follows: Solubility test: apparent solubility in water, supernatant concentration determined by HPLC. Conditions: for apparent solubility: excess sample in 0.5ml of water, ultrasonic approx. 3 minutes, standing 30 minutes at room temperature, supernatant by HPLC, 30 min.
Experimental: After standing for 30 minutes at room temperature, separate the supernatant by centrifugation. Determine the concentration of sample in supernatant by HPLC (defined as apparent solubility).
Series [2] can be described thus: Hygroscopicity test using a microbalance. The format is physicochemical. To be noted: 25 °C, relative humidity of 5% to 95%, Figure 2. As to the method: Evaluate hygroscopicity of the amorphous substance using a microbalance (MBA300W, WTI Company, USA). Hang the sample placed on the glass rack in an apparatus that preconditioned at 25 °C, and track the changes of sample weight at a relative humidity of 5% to 95%. Measure the weight of sample at each measurement point (relative humidity) at 2 minutes intervals. The final value was the weight unit at a time point that the variability is less than 0.2%.

The nature of series [3]: Stability test: heat treatment under reduced pressure, analysed by XRPD, DSC, TGA and IR. Conditions: dried under reduced pressure at 80 °C for 8 hours, then in vacuum for 15 hours, TGA. It counts as physicochemical. As to the method: Dry the samples of the amorphous CDB-2914 obtained in the above-mentioned examples under reduced pressure at 80 °C for 8 hours, and then dry in vacuum for 15 hours.

Consider `CC(=O)O[C@]1(C(C)=O)CC[C@H]2[C@@H]3CCC4=CC(=O)CCC4=C3[C@@H](c3ccc(N(C)C)cc3)C[C@@]21C` [Known crystal(crystal form A), 17α-acetoxy-11β-(4-N,N-dimethylaminophenyl)-19-norpregna-4,9-diene-3,20-dione, reference compound], for which the apparent solubility in series [1] came out at 0.125 µg/mL.
For the compound `CC(=O)O[C@]1(C(C)=O)CC[C@H]2[C@@H]3CCC4=CC(=O)CCC4=C3[C@@H](c3ccc(N(C)C)cc3)C[C@@]21C` [amorphous form, 17α-acetoxy-11β-(4-N,N-dimethylaminophenyl)-19-norpregna-4,9-diene-3,20-dione], in series [1] (apparent solubility in water, amorphous versus crystal form A), the “solubility relative to crystal form A” value was determined as 8 times. In series [1], the apparent solubility was determined as 1 µg/mL. The hygroscopicity result in series [2] was “low hygroscopicity”. The “thermal stability (solid form after heat treatment)” value in series [3] is reported as “remained amorphous”.
